For one assay, the target named is LRRK2(G2019S mutation, GST-LRRK2(amino acids 970-2527)) (Homo sapiens (Human), UniProt Q5S007, G2019S). In words: LRRK2 Km ATP LanthaScreen Assay. The note with it: Examples N1-N25. The class given is biochemical. The procedure: Unless otherwise noted, all LRRK2 IC50 data presented in tables refers to the LRRK2 Km ATP LanthaScreen™ Assay that is described in the Biological Assay section.
Sequence of LRRK2(G2019S mutation, GST-LRRK2(amino acids 970-2527)) (Q5S007 970-2527 G2019S): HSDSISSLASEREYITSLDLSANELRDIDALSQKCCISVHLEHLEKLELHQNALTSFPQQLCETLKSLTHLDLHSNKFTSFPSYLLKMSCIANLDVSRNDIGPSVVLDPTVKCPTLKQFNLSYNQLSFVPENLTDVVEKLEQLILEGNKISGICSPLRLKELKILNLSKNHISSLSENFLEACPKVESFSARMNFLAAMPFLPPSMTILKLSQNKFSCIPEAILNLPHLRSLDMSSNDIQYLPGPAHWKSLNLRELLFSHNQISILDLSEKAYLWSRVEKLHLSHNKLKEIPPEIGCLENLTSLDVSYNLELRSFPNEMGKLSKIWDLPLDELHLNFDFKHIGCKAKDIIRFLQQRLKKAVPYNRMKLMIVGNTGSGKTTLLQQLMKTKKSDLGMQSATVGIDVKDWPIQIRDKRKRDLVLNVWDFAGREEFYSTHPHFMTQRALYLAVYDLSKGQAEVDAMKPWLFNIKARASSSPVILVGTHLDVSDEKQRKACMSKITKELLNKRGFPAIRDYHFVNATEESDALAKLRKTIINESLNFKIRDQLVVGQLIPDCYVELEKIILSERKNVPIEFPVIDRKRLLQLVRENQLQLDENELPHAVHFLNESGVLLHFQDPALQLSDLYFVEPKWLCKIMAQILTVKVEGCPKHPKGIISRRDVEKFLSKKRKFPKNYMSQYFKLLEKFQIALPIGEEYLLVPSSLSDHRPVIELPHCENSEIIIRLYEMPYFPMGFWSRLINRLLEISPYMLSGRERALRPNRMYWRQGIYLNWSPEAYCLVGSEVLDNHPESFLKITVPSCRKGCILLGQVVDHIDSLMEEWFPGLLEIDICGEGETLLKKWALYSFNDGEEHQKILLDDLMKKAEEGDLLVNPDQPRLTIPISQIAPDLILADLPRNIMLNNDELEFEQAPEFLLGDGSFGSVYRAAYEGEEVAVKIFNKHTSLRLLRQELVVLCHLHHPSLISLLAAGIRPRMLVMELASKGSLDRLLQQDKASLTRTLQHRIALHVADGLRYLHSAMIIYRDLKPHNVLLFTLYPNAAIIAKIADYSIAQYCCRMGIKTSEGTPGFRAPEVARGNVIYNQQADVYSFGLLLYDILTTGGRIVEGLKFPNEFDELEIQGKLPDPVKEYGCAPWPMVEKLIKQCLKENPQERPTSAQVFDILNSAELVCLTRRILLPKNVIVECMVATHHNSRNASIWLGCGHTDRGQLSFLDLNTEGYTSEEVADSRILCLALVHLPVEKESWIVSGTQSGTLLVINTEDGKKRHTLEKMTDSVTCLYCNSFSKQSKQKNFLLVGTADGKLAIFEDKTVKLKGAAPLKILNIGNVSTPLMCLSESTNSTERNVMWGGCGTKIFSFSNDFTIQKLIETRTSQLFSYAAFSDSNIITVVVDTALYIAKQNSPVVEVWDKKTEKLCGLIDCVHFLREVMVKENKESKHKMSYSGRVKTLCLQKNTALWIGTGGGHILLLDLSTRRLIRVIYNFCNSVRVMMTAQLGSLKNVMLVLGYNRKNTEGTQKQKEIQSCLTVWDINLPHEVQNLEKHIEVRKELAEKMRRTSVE
The data presented for the 5 mM and Km ATP LanthaScreen™ Assay represents mean IC50 values based on several test results and may have reasonable. deviations depending on the specific conditions and reagents used. Reagents for the LRRK2 5 mM and Km ATP LanthaScreen™ Assay were purchased from Life Technologies Corporation.
LRRK2 Km ATP LanthaScreen™ Assay
a) 400 nl of a 1:2.15 serial dilution of test compound(98 μM top assay concentration) is spotted via Labcyte Echo to certain wells in a 384 well black, untreated plate. Control wells contain 400 nl of either DMSO or 400 nl of a known inhibitor in DMSO.
b) 10 μl of a 2.5 nM LRRK2(G2019S mutation, GST-LRRK2(amino acids 970-2527)) enzyme solution in 1× assay buffer(50 mM Tris pH 8.5, 10 mM MgCl2, 0.01% Brij-35, 1 mM EGTA, 2 mM DTT, 0.05 mM NaVO4) is added to all wells.
c) A 30 minute room temperature incubation is followed by addition of 10 μl of 800 nM fluorescein labeled LRRKtide peptide substrate and 184 μM ATP solution in 1× assay buffer to all wells.
d) After a 60 minute room temperature incubation, 20 μl of TR-FRET Dilution Buffer(Invitrogen PV3756B) containing 4 nM Tb-labeled anti-phospho LRRKtide antibody and 20 mM EDTA is added to all wells.
e) Plates are incubated at room temperature for 1 hour and read on an Envision™ multi-mode plate reader with LanthaScreen™ settings. Results are analysed using Assay Data Analyzer.
A general note: In TR-FRET formats the signal depends on donor and acceptor labels being close together.
As for `CO[C@H]1CN(c2cc(-c3n[nH]c4cc(F)c(OC(C)C)cc34)ncn2)C[C@@H]1O` [Example N17], half-maximal inhibition (IC50) was put at 7.7 nM.

Regarding `CC(C)Oc1cc2c(-c3cc(N4[C@H](C)COC[C@H]4C)ncn3)n[nH]c2cc1F` [Example N24], the midpoint of inhibition, the IC50, lay at 62.1 nM.

In turn, `CC(C)Oc1cc2c(-c3cc(N4CC[S+]([O-])CC4)ncn3)n[nH]c2cc1F` [Example N9] yielded an IC50 of 6.1 nM.

For the compound `CC(C)Oc1cc2c(-c3cc(N4CCN(CCCO)CC4)ncn3)n[nH]c2cc1F` [Example N23], the midpoint of inhibition, the IC50, lay at 3.1 nM.

The assay is the same for the next values; noted with them: Examples O1-O23.
Take `COC[C@H](C)Oc1ccc2[nH]nc(-c3cc(N4[C@H](C)COC[C@@H]4C)ncn3)c2c1` [Example O15]: the midpoint of inhibition, the IC50, lay at 7.4 nM.

With `COC[C@H](C)Oc1ccc2[nH]nc(-c3cc(N4CCN(C)C(=O)C4)ncn3)c2c1` [Example O9], half-maximal inhibition (IC50) required 10.9 nM.

`COC[C@H](C)Oc1ccc2[nH]nc(-c3cc(N4C[C@H](OC)[C@@H](O)C4)ncn3)c2c1` [Example O21] showed an IC50 of 19.8 nM.

As for `COC[C@H](C)Oc1ccc2[nH]nc(-c3cc(N4CCN5C(=O)OCC5C4)ncn3)c2c1` (some centres unmarked) [Example O20], the midpoint of inhibition, the IC50, lay at 8.8 nM.

The same assay, now with this note: Examples P1-P18.
Take `N#Cc1ccc(-c2ccc3[nH]nc(-c4cc(N5CCOCC5)ncn4)c3c2)cc1` [Example P6]: the IC50 came to 150 nM.

With `COc1ccc(-c2ccc3[nH]nc(-c4cc(N5CCOCC5)ncn4)c3c2)cn1` [Example P17], the IC50 turned out to be 31.2 nM.

The assay is the same for the next values; noted with them: Examples Q1-Q20.
For `C[C@@H]1CN(c2cc(-c3n[nH]c4ccc(-c5ccc6ncnn6c5)cc34)ncn2)C[C@H](C)O1` [Example Q1], the IC50 came out at 240 nM.

Staying with this assay, now noted: Km ATP (184 μM ATP solution), G2019S LRRK2, mean IC50.
Take `CC(C)Oc1ccc2[nH]nc(-c3cc(N4CCn5nc(C6CC6)nc5C4)ncn3)c2c1` [Example K19]: the IC50 came to 18.2 nM.

`CCN1CCN(c2cc(-c3n[nH]c4cc(F)c(OC(C)C)cc34)ncn2)CC1=O` [Example D36] displayed an IC50 of 4.16 nM.

The compound `CC(C)Oc1cc2c(-c3cc(N4CCOCC4C)ncn3)n[nH]c2cc1F` (centres unmarked) [Example D40] yielded a half-maximal inhibitory concentration (IC50) of 5.54 nM.

`COCCN1CCN(c2cc(-c3n[nH]c4cc(F)c(OC(C)C)cc34)ncn2)CC1=O` [Example D71] gave an IC50 of 1.63 nM.

On to `CCN1CCN(c2cc(-c3n[nH]c4ccc(OCCOC)cc34)ncn2)CC1=O` [Example G9], for which the IC50 came out at 107 nM.

As for `CCCN1CCN(c2cc(-c3n[nH]c4cc(F)c(OC(C)C)cc34)ncn2)CC1=O` [Example D66], the half-inhibitory concentration (IC50) came out at 2.77 nM.

`CC(C)Oc1cc2c(-c3cc(N4CCN(C)[C@@H](C)C4)ncn3)n[nH]c2cc1F` [Example D50]: the IC50 was found to be 1.2 nM.

`CCOc1ccc2[nH]nc(-c3cc(N4CC5CCC(C4)O5)ncn3)c2c1` [Example F10] came in with an IC50 of 32.7 nM.

As for `CCOc1ccc2[nH]nc(-c3cc(N4CCN(C5CC5)CC4)ncn3)c2c1` [Example F5], 16.7 nM corresponded to half-maximal inhibition (IC50).

`CO[C@@H]1CCN(c2cc(-c3n[nH]c4ccc(-c5cnn(C)c5)cc34)ncn2)C1` [Example M1] had an IC50 of 4 nM.

As to `CC(C)Oc1ccc2[nH]nc(-c3cc(N4CCC(CF)C4)ncn3)c2c1` (centres unmarked) [Example K15], the IC50 was 6.9 nM.

As for `CC(C)Oc1cc2c(-c3cc(N4CCN(C)[C@H](C)C4)ncn3)n[nH]c2cc1F` [Example D51], the IC50 was determined as 1.3 nM.

`CC(C)Oc1ccc2[nH]nc(-c3cc(N4CCN(C)CC4)ncn3)c2c1` [Example J17] displayed an IC50 of 5.4 nM.

Compound `COCCOC1CCN(c2cc(-c3n[nH]c4ccc(-c5cnn(C)c5)cc34)ncn2)CC1` [Example A9] had an IC50 of 1.87 nM.

Take `CC(C)Oc1ccc2[nH]nc(-c3cc(N4C[C@H](N)C[C@@H]4C)ncn3)c2c1` [Example D52]: it took 11.1 nM to reach half-maximal inhibition (IC50).

On to `Cn1cc(-c2cc3c(-c4cc(N5CCCC(F)(F)C5)ncn4)n[nH]c3cc2F)cn1` [Example L3], for which the IC50 stood at 23.4 nM.

`CC(O)C1CCN(c2cc(-c3n[nH]c4ccc(-c5cnn(C)c5)cc34)ncn2)C1` (centres unmarked) [Example M6] showed an IC50 of 2.3 nM.

With `CC(C)=Cc1ccc2[nH]nc(-c3cc(N4C[C@@H](C)O[C@@H](C)C4)ncn3)c2c1` [Example S5], it took 20.3 nM to reach half-maximal inhibition (IC50).

For `CCc1nnc2n1CCN(c1cc(-c3n[nH]c4ccc(OC(C)C)cc34)ncn1)C2` [Example J19], the concentration for half-maximal inhibition (IC50) amounted to 8.6 nM.

Turning to `COCCOc1ccc2[nH]nc(-c3cc(N4CC5CCC(C4)O5)ncn3)c2c1` [Example G12], half-maximal inhibition (IC50) was put at 154 nM.

Regarding `Cn1cc(-c2cc3c(-c4cc(N5CC[C@@H](CO)C5)ncn4)n[nH]c3cc2F)cn1` [Example L4], half-maximal inhibition (IC50) required 36.8 nM.

Regarding `CN1CCN(c2cc(-c3n[nH]c4ccc(-c5cnn(C)c5)cc34)ncn2)CC1` [Example A6], half-maximal inhibition (IC50) required 2.85 nM.

The compound `CC(C)Oc1ccc2[nH]nc(-c3cc(N4C=CSCC4)ncn3)c2c1` [Example D27] had an IC50 of 6.08 nM.

The compound `CCN1CCN(c2cc(-c3n[nH]c4ccc(OC)cc34)ncn2)CC1` [Example E8] had an IC50 of 24.3 nM.

`CCS(=O)(=O)N1CCN(c2cc(-c3n[nH]c4cc(F)c(OC(C)C)cc34)ncn2)CC1` [Example D68] came in with a half-maximal inhibitory concentration (IC50) of 2.24 nM.

`CCOc1ccc2[nH]nc(-c3cc(N4C[C@@H](C)O[C@@H](C)C4)ncn3)c2c1` [Example F2]: half-maximal inhibition (IC50) required 12.8 nM.

Compound `COC[C@H](C)Oc1ccc2[nH]nc(-c3cc(N4CCN(S(C)(=O)=O)CC4)ncn3)c2c1` [Example H6] displayed an IC50 of 4.5 nM.

As to `CC(C)Oc1ccc2[nH]nc(-c3cc(N4CCOC5(CC5)C4)ncn3)c2c1` [Example D12], the IC50 was 4.04 nM.

With `CC(C)Oc1ccc2[nH]nc(-c3cc(N4CCN(C(C)C)C(=O)C4)ncn3)c2c1` [Example D29], the IC50 came out at 5.28 nM.

`CCC(=O)N1CCN(c2cc(-c3n[nH]c4cc(F)c(OC(C)C)cc34)ncn2)CC1` [Example D64] had an IC50 of 4.32 nM.

The compound `CC(C)Oc1ccc2[nH]nc(-c3cc(N4CCOC(C)(C)C4)ncn3)c2c1` [Example D3] registered an IC50 of 6.37 nM.

`CC(C)Oc1ccc2[nH]nc(-c3cc(N4CCN(Cc5ccncc5)CC4)ncn3)c2c1` [Example K16] registered an IC50 of 8.2 nM.

`CC(C)Oc1ccc2[nH]nc(-c3cc(N4CCC(F)(CO)CC4)ncn3)c2c1` [Example K20]: the midpoint of inhibition, the IC50, lay at 6.3 nM.

`Cn1cc(-c2ccc3[nH]nc(-c4cc(N5CC[C@H](CO)C5)ncn4)c3c2)cn1` [Example M5] came in with an IC50 of 2.5 nM.

`COCCOc1ccc2[nH]nc(-c3cc(N4CCN(C)C(=O)C4)ncn3)c2c1` [Example G7] displayed an IC50 of 69 nM.

The assay is the same for the next values; noted with them: Table U.
Consider `CC(C)N1CCN(c2cc(-c3n[nH]c4ccc(-c5cccs5)cc34)ncn2)CC1` [Example U21], for which it took 61.5 nM to reach half-maximal inhibition (IC50).

In the case of `COc1ccncc1-c1ccc2[nH]nc(-c3cc(N4CCC(F)(F)CC4)ncn3)c2c1` [Example U4], the IC50 came out at 6.66 nM.

`c1nc(-c2n[nH]c3ccc(-c4ccsc4)cc23)cc(N2CCOCC2)n1` [Example U9] displayed an IC50 of 36.4 nM.

As for `FC1(F)CCN(c2cc(-c3n[nH]c4ccc(-c5cc[nH]n5)cc34)ncn2)CC1` [Example U6], the IC50 is 2.16 nM.

In turn, `CC1(C)CC(=O)C=C(c2ccc3[nH]nc(-c4cc(N5CCOCC5)ncn4)c3c2)C1` [Example U11] registered an IC50 of 1.63 nM.

`Clc1cc(-c2ccc3[nH]nc(-c4cc(N5CCOCC5)ncn4)c3c2)ccn1` [Example U18] registered an IC50 of 266 nM.

For `C[C@@H]1CN(c2cc(-c3n[nH]c4ccc(-c5cn[nH]c5)cc34)ncn2)C[C@H](C)O1` [Example U27], it took 1.35 nM to reach half-maximal inhibition (IC50).

Usually IC50 stands for the midpoint of a concentration-inhibition curve.

The values are drawn from patent US9416126B2, “Compounds inhibiting leucine-rich repeat kinase enzyme activity” (Merck Sharp & Dohme Corp., priority 2013, dated 2016).
